Results: the OligoGym collection
HELM strings list units from the 5' end as sugar, base in round brackets, then linkage (d deoxyribose, r ribose, m 2'-O-methyl, p phosphodiester). Strings are as the collection lists them; they lack the last nucleoside at the 3' end of the tested compound. [moe] = 2'-O-(2-methoxyethyl) (MOE); [sp] = phosphorothioate linkage; [m5C] = 5-methylcytosine

Biological target: ATXN2
Assay: mouse, dose not given
Settings: ASO

In the case of “RNA1{[moe](A)[sp].[moe](T)p.[moe](G)p.[moe]([m5C])p.[moe](A)p.d([m5C])[sp].d(T)[sp].d(G)[sp].d([m5C])[sp].d(T)[sp].d(T)[sp].d(G)[sp].d([m5C])[sp].d([m5C])[sp].d(T)[sp].[moe](G)p.[moe](G)p.[moe](A)[sp].[moe](G)}$$$$ (last 3' nucleoside missing)”, the 3 h FOB score is reported as 5 score 0-7.

“RNA1{[moe](T)[sp].[moe](T)p.[moe](A)p.[moe](A)p.[moe]([m5C])p.d(T)[sp].d(G)[sp].d(T)[sp].d(G)[sp].d(T)[sp].d(T)[sp].d(A)[sp].d(G)[sp].d(A)[sp].d(A)[sp].[moe](T)p.[moe](G)p.[moe]([m5C])[sp].[moe](T)}$$$$ (last 3' nucleoside missing)” gave a 3 h FOB score of 5.5 score 0-7.

“RNA1{[moe](T)[sp].[moe](T)p.[moe](T)p.[moe](G)p.[moe](T)p.d(T)[sp].d(A)[sp].d([m5C])[sp].d(T)[sp].d(G)[sp].d(T)[sp].d(T)[sp].d(T)[sp].d([m5C])[sp].d(G)[sp].[moe](A)p.[moe]([m5C])p.[moe]([m5C])[sp].[moe](T)}$$$$ (last 3' nucleoside missing)” showed a 3 h FOB score of 5 score 0-7.

Substance “RNA1{[moe]([m5C])[sp].[moe](G)p.[moe]([m5C])p.[moe](G)p.[moe](G)p.d(T)[sp].d(G)[sp].d(A)[sp].d(A)[sp].d(T)[sp].d(T)[sp].d([m5C])[sp].d(T)[sp].d(G)[sp].d(T)[sp].[moe]([m5C])p.[moe](T)p.[moe]([m5C])[sp].[moe]([m5C])}$$$$ (last 3' nucleoside missing)” has a 3 h FOB score of 1 score 0-7.

With “RNA1{[moe](G)[sp].[moe](G)p.[moe](A)p.[moe](T)p.[moe](T)p.d([m5C])[sp].d(T)[sp].d(G)[sp].d(T)[sp].d(A)[sp].d([m5C])[sp].d(T)[sp].d(T)[sp].d(T)[sp].d(T)[sp].[moe]([m5C])p.[moe](T)p.[moe]([m5C])[sp].[moe](A)}$$$$ (last 3' nucleoside missing)” the 3 h FOB score was 1 score 0-7.

Work on “RNA1{[moe](T)[sp].[moe](T)p.[moe](A)p.[moe](G)p.[moe]([m5C])p.d(T)[sp].d([m5C])[sp].d(A)[sp].d(T)[sp].d([m5C])[sp].d(A)[sp].d(A)[sp].d(G)[sp].d(G)[sp].d(T)[sp].[moe](A)p.[moe]([m5C])p.[moe]([m5C])[sp].[moe](A)}$$$$ (last 3' nucleoside missing)” yielded a 3 h FOB score of 3.75 score 0-7.

With “RNA1{[moe](G)[sp].[moe]([m5C])p.[moe](G)p.[moe](G)p.[moe](T)p.d(G)[sp].d(A)[sp].d(A)[sp].d(T)[sp].d(T)[sp].d([m5C])[sp].d(T)[sp].d(G)[sp].d(T)[sp].d([m5C])[sp].[moe](T)p.[moe]([m5C])p.[moe]([m5C])[sp].[moe]([m5C])}$$$$ (last 3' nucleoside missing)” the 3 h FOB score was 0 score 0-7.

With “RNA1{[moe](T)[sp].[moe](A)p.[moe](G)p.[moe]([m5C])p.[moe](T)p.d([m5C])[sp].d(A)[sp].d(T)[sp].d([m5C])[sp].d(A)[sp].d(A)[sp].d(G)[sp].d(G)[sp].d(T)[sp].d(A)[sp].[moe]([m5C])p.[moe]([m5C])p.[moe](A)[sp].[moe](G)}$$$$ (last 3' nucleoside missing)” the 3 h FOB score was 3 score 0-7.

“RNA1{[moe](T)[sp].[moe](G)p.[moe](T)p.[moe](G)p.[moe](T)p.d(A)[sp].d(T)[sp].d(T)[sp].d(T)[sp].d(T)[sp].d(T)[sp].d([m5C])[sp].d(T)[sp].d(T)[sp].d([m5C])[sp].[moe]([m5C])p.[moe](T)p.[moe]([m5C])[sp].[moe](A)}$$$$ (last 3' nucleoside missing)” gave a 3 h FOB score of 0.25 score 0-7.

“RNA1{[moe](A)[sp].[moe](A)p.[moe]([m5C])p.[moe](G)p.[moe](G)p.d(A)[sp].d(G)[sp].d(T)[sp].d([m5C])[sp].d(A)[sp].d([m5C])[sp].d(T)[sp].d(G)[sp].d(T)[sp].d(T)[sp].[moe](T)p.[moe](T)p.[moe](T)[sp].[moe]([m5C])}$$$$ (last 3' nucleoside missing)” gave a 3 h FOB score of 5.5 score 0-7.

In the case of “RNA1{[moe](A)[sp].[moe](T)p.[moe]([m5C])p.[moe](A)p.[moe](T)[sp].d([m5C])[sp].d(A)[sp].d(T)[sp].d(T)[sp].d(T)[sp].d(T)[sp].d([m5C])[sp].d([m5C])[sp].[moe](A)p.[moe](G)p.[moe](G)[sp].[moe](G)}$$$$ (last 3' nucleoside missing)”, the 3 h FOB score is reported as 4.5 score 0-7.

Substance “RNA1{[moe](G)[sp].[moe](T)p.[moe](A)p.[moe](G)p.[moe](T)p.d(G)[sp].d(T)[sp].d(T)[sp].d(T)[sp].d(G)[sp].d(G)[sp].d(G)[sp].d(A)[sp].d(T)[sp].d(G)[sp].[moe]([m5C])p.[moe](T)p.[moe](T)[sp].[moe]([m5C])}$$$$ (last 3' nucleoside missing)” has a 3 h FOB score of 6 score 0-7.

“RNA1{[moe](A)[sp].[moe](A)p.[moe]([m5C])p.[moe](G)p.[moe](A)p.d(T)[sp].d(G)[sp].d(A)[sp].d(T)[sp].d([m5C])[sp].d(T)[sp].d(G)[sp].d(G)[sp].d(T)[sp].d(A)[sp].[moe](T)p.[moe]([m5C])p.[moe]([m5C])[sp].[moe](T)}$$$$ (last 3' nucleoside missing)” gave a 3 h FOB score of 7 score 0-7.

“RNA1{[moe](G)[sp].[moe](T)p.[moe](T)p.[moe]([m5C])p.[moe](A)p.d(T)[sp].d([m5C])[sp].d(T)[sp].d(T)[sp].d(T)[sp].d(T)[sp].d([m5C])[sp].d([m5C])[sp].d(T)[sp].d(T)[sp].[moe]([m5C])p.[moe](A)p.[moe](G)[sp].[moe](A)}$$$$ (last 3' nucleoside missing)” gave a 3 h FOB score of 0 score 0-7.

Substance “RNA1{[moe](G)[sp].[moe](A)p.[moe](T)p.[moe](T)p.[moe]([m5C])p.d(T)[sp].d(G)[sp].d(T)[sp].d(A)[sp].d([m5C])[sp].d(T)[sp].d(T)[sp].d(T)[sp].d(T)[sp].d([m5C])[sp].[moe](T)p.[moe]([m5C])p.[moe](A)[sp].[moe](T)}$$$$ (last 3' nucleoside missing)” has a 3 h FOB score of 4.5 score 0-7.

Work on “RNA1{[moe]([m5C])[sp].[moe](T)p.[moe](G)p.[moe]([m5C])p.[moe](T)p.[moe](A)p.d(A)[sp].d([m5C])[sp].d(T)[sp].d(G)[sp].d(G)[sp].d(T)[sp].d(T)[sp].d(T)[sp].d(G)[sp].d([m5C])[sp].[moe]([m5C])p.[moe]([m5C])[sp].[moe](T)}$$$$ (last 3' nucleoside missing)” yielded a 3 h FOB score of 5.5 score 0-7.

With “RNA1{[moe](G)[sp].[moe](G)p.[moe](A)p.[moe]([m5C])p.[moe](A)p.d(A)[sp].d(G)[sp].d(A)[sp].d(A)[sp].d(A)[sp].d(T)[sp].d(T)[sp].d(T)[sp].d(T)[sp].d([m5C])[sp].[moe](A)p.[moe](G)p.[moe](T)[sp].[moe](T)}$$$$ (last 3' nucleoside missing)” the 3 h FOB score was 4.5 score 0-7.

Work on “RNA1{[moe]([m5C])[sp].[moe](T)p.[moe]([m5C])p.[moe](T)p.[moe]([m5C])[sp].d([m5C])[sp].d(A)[sp].d(T)[sp].d(T)[sp].d(A)[sp].d(T)[sp].d(T)[sp].d(T)[sp].d([m5C])[sp].d(T)[sp].[moe](T)p.[moe]([m5C])p.[moe](A)[sp].[moe]([m5C])}$$$$ (last 3' nucleoside missing)” yielded a 3 h FOB score of 5.75 score 0-7.

With “RNA1{[moe]([m5C])[sp].[moe]([m5C])p.[moe](T)p.[moe](A)p.[moe](T)[sp].d([m5C])[sp].d(A)[sp].d(T)[sp].d([m5C])[sp].d(A)[sp].d(T)[sp].d(T)[sp].d(T)[sp].[moe](T)p.[moe]([m5C])p.[moe]([m5C])[sp].[moe](A)}$$$$ (last 3' nucleoside missing)” the 3 h FOB score was 1 score 0-7.

With “RNA1{[moe](T)[sp].[moe]([m5C])p.[moe](A)p.[moe](G)p.[moe](A)p.d([m5C])[sp].d(T)[sp].d(T)[sp].d([m5C])[sp].d(T)[sp].d(T)[sp].d(G)[sp].d(T)[sp].d(T)[sp].d(G)[sp].[moe](T)p.[moe](T)p.[moe](G)[sp].[moe](T)}$$$$ (last 3' nucleoside missing)” the 3 h FOB score was 2 score 0-7.

With “RNA1{[moe](T)[sp].[moe]([m5C])p.[moe](T)p.[moe]([m5C])p.[moe](T)p.d(A)[sp].d(T)[sp].d(T)[sp].d(T)[sp].d([m5C])[sp].d(T)[sp].d(T)[sp].d(T)[sp].d(G)[sp].d(T)[sp].[moe]([m5C])p.[moe]([m5C])p.[moe](A)[sp].[moe](G)}$$$$ (last 3' nucleoside missing)” the 3 h FOB score was 6.75 score 0-7.

In the case of “RNA1{[moe]([m5C])[sp].[moe](T)p.[moe](T)p.[moe](A)p.[moe](G)[sp].d(A)[sp].d(G)[sp].d(T)[sp].d(T)[sp].d(T)[sp].d(T)[sp].d(T)[sp].d(G)[sp].[moe]([m5C])p.[moe]([m5C])p.[moe](T)[sp].[moe](T)}$$$$ (last 3' nucleoside missing)”, the 3 h FOB score is reported as 6 score 0-7.

Substance “RNA1{[moe](G)[sp].[moe]([m5C])p.[moe](A)p.[moe](A)p.[moe](A)p.d(G)[sp].d(A)[sp].d([m5C])[sp].d(T)[sp].d(T)[sp].d(T)[sp].d(G)[sp].d(A)[sp].d(A)[sp].d(A)[sp].[moe](T)p.[moe]([m5C])p.[moe](T)[sp].[moe]([m5C])}$$$$ (last 3' nucleoside missing)” has a 3 h FOB score of 0 score 0-7.

Work on “RNA1{[moe](G)[sp].[moe](T)p.[moe](A)p.[moe]([m5C])p.[moe](T)[sp].d(T)[sp].d([m5C])[sp].d(A)[sp].d([m5C])[sp].d(A)[sp].d(T)[sp].d(T)[sp].d(T)[sp].[moe](G)p.[moe](G)p.[moe](A)[sp].[moe](G)}$$$$ (last 3' nucleoside missing)” yielded a 3 h FOB score of 1 score 0-7.

With “RNA1{[moe](G)[sp].[moe]([m5C])[sp].[moe](T)[sp].[moe](A)[sp].[moe](A)[sp].d([m5C])[sp].d(T)[sp].d(G)[sp].d(G)[sp].d(T)[sp].d(T)[sp].d(T)[sp].d(G)[sp].d([m5C])[sp].d([m5C])[sp].[moe]([m5C])[sp].[moe](T)[sp].[moe](T)[sp].[moe](G)}$$$$ (last 3' nucleoside missing)” the 3 h FOB score was 7 score 0-7.

In the case of “RNA1{[moe](T)[sp].[moe](G)p.[moe](G)p.[moe](A)p.[moe](T)p.d(T)[sp].d([m5C])[sp].d(T)[sp].d(G)[sp].d(T)[sp].d(A)[sp].d([m5C])[sp].d(T)[sp].d(T)[sp].d(T)[sp].[moe](T)p.[moe]([m5C])p.[moe](T)[sp].[moe]([m5C])}$$$$ (last 3' nucleoside missing)”, the 3 h FOB score is reported as 5.25 score 0-7.
